Assay results: PMC9747717, “A novel small molecule inhibitor of human Drp1” (Scientific Reports, 2022)

Columns and labels:
[1] = Dynamic light scattering (DLS) compound aggregation threshold; format: physicochemical
Procedure: Identification of compound aggregation threshold was performed using DLS Zetasizer Nano ZS (Malvern Pananalytical, Worcestershire, UK). 100 µL of samples were measured in low-volume plastic micro cuvettes (BrandTech Scientific, CT, USA) at 25 °C using default size measurement settings. […] Mdivi-1 and DRP1i27 were serially diluted three-fold from 500 µM until the volume distribution of particle size was similar to that of the DMSO control. To specifically determine aggregation threshold, further dilution was carried out between concentrations where aggregation was first observed.

human Drp1 = biological target: human Drp1; parameters: method as in PMID 28350990; conditions: read-out: inhibitory constant (Ki), GTPase activity of human Drp1; cited from earlier work
human Drp1 isoform 3 [2] = biological target: T1, human Drp1 isoform 3 (Homo sapiens, UniProt O00429); assay: Surface plasmon resonance (SPR) binding; conditions: concentrations as high as 100 µM
T1 construct: His tag; made in house; host or cells: E. coli Rosetta (DE3), pET21b vector
T1 sequence (O00429 1-699 isoform O00429-4): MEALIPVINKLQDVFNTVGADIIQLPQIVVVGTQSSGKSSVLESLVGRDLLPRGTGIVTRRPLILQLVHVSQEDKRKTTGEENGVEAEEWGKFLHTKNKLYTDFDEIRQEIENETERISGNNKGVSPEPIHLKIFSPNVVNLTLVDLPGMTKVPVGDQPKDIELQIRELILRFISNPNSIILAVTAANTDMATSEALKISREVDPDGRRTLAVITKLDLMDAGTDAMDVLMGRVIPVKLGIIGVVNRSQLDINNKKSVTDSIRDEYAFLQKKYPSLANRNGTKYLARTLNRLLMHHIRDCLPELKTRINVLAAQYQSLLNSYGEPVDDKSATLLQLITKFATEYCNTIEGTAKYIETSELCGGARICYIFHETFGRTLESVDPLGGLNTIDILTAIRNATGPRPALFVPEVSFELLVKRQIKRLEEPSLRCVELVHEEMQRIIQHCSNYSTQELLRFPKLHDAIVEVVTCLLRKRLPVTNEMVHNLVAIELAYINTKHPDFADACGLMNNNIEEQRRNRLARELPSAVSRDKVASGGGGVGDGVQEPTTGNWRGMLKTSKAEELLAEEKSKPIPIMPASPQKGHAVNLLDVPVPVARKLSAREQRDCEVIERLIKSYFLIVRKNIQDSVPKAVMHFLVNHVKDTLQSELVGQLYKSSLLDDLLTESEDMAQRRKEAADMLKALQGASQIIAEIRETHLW
Procedure: The recombinant human Drp1 protein (His-tagged human Drp1 isoform 3, kindly provided by Professor Michael Ryan, Monash University, Australia) was generated as described previously. Briefly, cDNA for human Drp1 (isoform 3) was cloned into pET21b vector and transformed in Rosetta (DE3) competent cells (Novagen, MA, Merck Millipore). Transformed cells were propagated in Luria–Bertani broth and protein expression was initiated by the addition of 0.5 mM isopropyl β-D-1-thiogalactopyranoside. […]
All SPR experiments were performed on a Biacore T200 instrument (GE Healthcare Life Sciences, Uppsala, Sweden) at 25 °C in the presence of HEPES buffered saline containing 20 mM phosphate (pH 7.5), 137 mM NaCl, 2.7 mM KCl and 0.05% Tween-20 (HBS + P). […] Sensor surface was activated with 1:1 mixture of 0.4 M EDC and 0.1 M NHS for 7 min, followed by incremental injections of the protein to reach ~ 8000 RU (flow rate 10 μL/minute) for a calculated maximum analyte binding capacity (Rmax) of 30–50 RU. […]
Compounds were dissolved in 100% dimethyl sulfoxide (DMSO) and then added to HBS + P at a final DMSO concentration of 2%. […] SPR results were analysed using the Biacore T200 Evaluation Software v.1.

human Drp1 isoform 3 [3] = biological target: T1, human Drp1 isoform 3; assay: Microscale thermophoresis (MST) binding; conditions: human Drp1 isoform 3, 5% DMSO
Procedure: The recombinant human Drp1 protein (His-tagged human Drp1 isoform 3, kindly provided by Professor Michael Ryan, Monash University, Australia) was generated as described previously. Briefly, cDNA for human Drp1 (isoform 3) was cloned into pET21b vector and transformed in Rosetta (DE3) competent cells (Novagen, MA, Merck Millipore). Transformed cells were propagated in Luria–Bertani broth and protein expression was initiated by the addition of 0.5 mM isopropyl β-D-1-thiogalactopyranoside. Cells were harvested by centrifugation at 3,500 g for 20 min at 4 °C, and the pellet was re-suspended in lysis buffer containing 50 mM Tris HCl (pH 7.3), 500 mM NaCl, 50 mM imidazole, 2.5 mM β-mercaptoethanol, 0.01 mM LEUPEP, 0.1 mM AEBSF and 1 mM benzaminidium chloride. The cells were lysed using a pre-cooled EmulsiFlex-C5 homogenizer (Avestin, Ontario, Canada) on ice and clarified by centrifugation at 17,000 g for 30 min. The clarified cell lysate was loaded onto a 5 mL Nickel Chelating Sepharose Fast Flow column (GE Healthcare, Buckinghamshire, UK) and Drp1 protein was eluted with wash buffer containing 50 mM Tris–HCl (pH 7.6), 150 mM NaCl, 2.5 mM β-mercaptoethanol and 400 mM imidazole. […]
Compound binding was assessed in against the human Drp1 isoform-3 protein using MST Monolith NT.115 instrument (NanoTemper Technologies, Mȕnchen, Germany). […]

human Drp1 isoform 3 [4] = biological target: T1, human Drp1 isoform 3; assay: Drp1 GTPase activity, colorimetric malachite green assay; format: biochemical
Procedure: The GTPase activity of Drp1, which is required for the latter to mediate mitochondrial fission, was examined using the colorimetric GTPase assay kit (Innova Biosciences, Cambridge, UK) according to the manufacturer’s instructions. Compounds were diluted in DMSO (all with a final concentration of 0.1% DMSO). Recombinant human Drp1 protein isoform-3 (final concentration 0.25 ng/µL) was diluted in assay buffer containing 50 mM Tris HCl (pH 7.5) and 2.5 mM MgCl2, followed by incubation with compounds for 15 min at 37 °C in a 96 well plate. 0.5 mM GTP, diluted in assay buffer, was then added into the mixture followed by incubation at 37 °C for 30 min.
Upon binding to Drp1, GTP is hydrolysed into GDP and free phosphate (Pi)[24]. Therefore, the degree of GTPase inhibition was assessed by measuring the concentration of Pi released into the assay buffer, which is detected by a malachite green-based dye. The intensity of Pi-dye complex was assessed by measuring the light absorbance at 635 nm wavelength using a microplate reader (BenchMark Plus, MS, USA). Absorbance of each experimental group was normalised to the vehicle control (DMSO).

[5] = test system: human iPSC-derived cardiomyocytes; assay: Doxorubicin-induced cardiomyocyte injury, LDH release; format: cell-based; conditions: doxorubicin 5 µM alone, 2 days
Procedure: Cardiomyocytes were derived from human induced pluripotent stem cells (iPSCs, CERA007c6 cell line) as previously described with modifications[26],[27]. Briefly, human iPSCs were seeded onto Matrigel (Corning) coated plates at a density of 1.25 × 10^5 cells/cm^2 in TeSR-E8 medium supplemented with 10 μM Y−27632 (Abcam). After 48 h (cells ~ 90% confluent) (day 0), medium was replaced with RPMI-1640 basal medium (Thermo Fisher Scientific) containing B-27 without insulin supplement (Thermo Fisher Scientific), growth factor reduced Matrigel (1:60 dilution) and 10 μM CHIR99021 (Cayman Chemical). At day 1, medium was replaced with RPMI 1640 basal medium containing B-27 without insulin supplement. […]
Enriched cardiomyocytes were replated onto Matrigel-coated 48-well plates at a cell density of 5 × 10^4 cells/cm^2 for 2 days. […] LDH levels in the conditioned media were assessed using a colorimetric CyQUANT LDH Cytotoxicity Assay Kit (Thermo Fisher Scientific) according to manufacturer’s protocol. […] Following the incubation at room temperature for 30 min in the dark, 50 μL of Stop Solution was added and absorbance was measured at 490 nm and 680 nm on a microplate spectrophotometer (Bio-Rad). All readings were then corrected for the background signal from the culture media and expressed as fold change.

For `COc1cc(-n2c(=S)[nH]c3ccccc3c2=O)c(Cl)cc1Cl` [Mdivi-1], which aggregation threshold ([1]; 2% DMSO with 0.05% Tween-20) is on record?
Its aggregation threshold is 70 µM.

What about the aggregation threshold ([1]; 5% DMSO with 0.05% Tween-20) of the same compound?
Its aggregation threshold is 18.5 µM.

And the aggregation threshold ([1]; PBS, 2% DMSO)?
The aggregation threshold was 20 µM.

And the aggregation threshold ([1]; PBS, 5% DMSO)?
The aggregation threshold was 35 µM.

And the “concentrations at which the compound aggregated” value ([1]; assay buffer containing DMSO and Tween-20)?
The value was “above 18.5 µM”.

What about the Ki (human Drp1) of the same compound?
Its Ki is > 1200 µM.

What about the SPR binding response (human Drp1 isoform 3 [2]) of the same compound?
Its SPR binding response is “no binding response”.

What about the Kd (human Drp1 isoform 3 [3]) of the same compound?
Its Kd is 0.23 µM.

And the “inhibition of GTPase activity of human Drp1” value (human Drp1 isoform 3 [4]; 5 µM)?
Its value is “significant inhibition”.

What about the “inhibition of GTPase activity of human Drp1” value (human Drp1 isoform 3 [4]; increasing concentration above 5 µM) of the same compound?
Its value is “not observed”.

With `COc1cccc2c1C(=O)c1c(O)c3c(c(O)c1C2=O)C[C@@](O)(C(=O)CO)C[C@@H]3O[C@H]1C[C@H](N)[C@H](O)[C@H](C)O1` [doxorubicin, reference compound] as the compound, how does the LDH release [5] read?
Its LDH release is 3.41 ± 0.11 fold change.
